# Source: US8637672B2 (Deciphera Pharmaceuticals, LLC, priority 2010, dated 2014)
# Read-outs that look alike come from different tables or passages of the source.
# How the values were obtained:
# [1] = target: T1, RET kinase (Homo sapiens, UniProt P07949); assay: RET Kinase Assay; type: biochemical; settings: for IC50: methods of the Biological Data section; for Fold Selectivity RET/MET: ratio RET IC50 / MET IC50
# T1 construct: GST tagged recombinant human RET, amino acids 658-1114; GST; purchased Invitrogen; host or cells: insect cells
# T1 sequence (P07949 658-1114): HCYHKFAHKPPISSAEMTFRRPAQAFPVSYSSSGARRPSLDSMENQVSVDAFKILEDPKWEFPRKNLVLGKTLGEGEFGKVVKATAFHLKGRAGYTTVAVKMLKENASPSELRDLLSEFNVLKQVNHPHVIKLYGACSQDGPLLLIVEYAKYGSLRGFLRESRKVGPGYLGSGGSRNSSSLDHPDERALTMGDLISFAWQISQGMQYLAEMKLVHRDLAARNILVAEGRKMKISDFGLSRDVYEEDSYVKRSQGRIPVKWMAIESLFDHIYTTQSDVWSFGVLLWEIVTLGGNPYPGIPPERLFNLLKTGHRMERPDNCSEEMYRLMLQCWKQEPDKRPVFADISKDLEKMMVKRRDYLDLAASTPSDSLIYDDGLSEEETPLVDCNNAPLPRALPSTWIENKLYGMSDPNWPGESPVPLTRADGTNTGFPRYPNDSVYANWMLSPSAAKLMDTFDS
# Protocol: Activity of RET kinase was determined by following the production of ADP from the kinase reaction through coupling with the pyruvate kinase/lactate dehydrogenase system (see e.g., Schindler et al. Science (2000) 289: 1938-1942). In this assay, the oxidation of NADH (thus the decrease at A340 nm) was continuously monitored spectrophotometrically. The reaction mixture (100 μl) contained RET (amino acid residues 658-1114, from Invitrogen, 2 nM), polyE4Y (1.5 mg/ml), MgCl2 (18 mM), pyruvate kinase (4 units), lactate dehydrogenase (0.7 units), phosphoenol pyruvate (1 mM), and NADH (0.28 mM) in 90 mM […] buffer containing 0.2% octyl-glucoside, 1 mM DTT and 1% DMSO, pH 7.5. Test compounds were incubated with RET kinase and other reaction reagents at 22° C. for <2 min before ATP (500 μM) was added to start the reaction. The absorption at 340 nm was monitored continuously for 3 hours at 30° C. on BioTek Synergy 2 Reader. The reaction rate was calculated using the 1 to 2 h time frame. Percent inhibition was obtained by comparison of reaction rate with that of a control (i.e., with no test compound). IC50 values were calculated from a series of percent inhibition values determined at a range of inhibitor concentrations using software routines as implemented in the GraphPad Prism software package.
# GST tagged recombinant human RET, amino acids 658-1114. Expressed in insect cells.
# [2] = target: T2, RON kinase (Homo sapiens, UniProt Q04912); assay: RON Kinase Assay; type: biochemical; settings: for IC50: methods of the Biological Data section; for Fold Selectivity RON/MET: ratio RON IC50 / MET IC50
# T2 construct: GST tagged recombinant human RON, amino acids 983-1400; GST; host or cells: insect cells
# T2 sequence (Q04912 983-1400): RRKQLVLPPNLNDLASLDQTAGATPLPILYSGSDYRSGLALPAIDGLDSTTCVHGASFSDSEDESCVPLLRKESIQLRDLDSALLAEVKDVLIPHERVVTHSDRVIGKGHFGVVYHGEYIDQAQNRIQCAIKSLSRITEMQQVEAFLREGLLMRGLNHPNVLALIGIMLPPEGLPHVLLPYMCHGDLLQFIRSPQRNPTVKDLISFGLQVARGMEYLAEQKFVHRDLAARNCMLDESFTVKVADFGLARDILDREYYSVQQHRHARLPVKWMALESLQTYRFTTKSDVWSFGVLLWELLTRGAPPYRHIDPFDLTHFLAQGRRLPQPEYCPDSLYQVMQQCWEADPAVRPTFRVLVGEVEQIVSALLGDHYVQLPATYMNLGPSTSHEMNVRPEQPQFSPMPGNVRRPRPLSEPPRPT
# Protocol: Activity of RON kinase was determined by a radioactive filtration binding assay where incorporation of ^33P from ^33P-γ-ATP to the substrate was measured. In this assay, detection of ^33P was indicative of RON phosphorylation activity which was directly proportional to the amount of phosphorylated peptide substrate ([…], SEQ ID NO: 4). Initially, the reaction mixture contained: 400 nM RON, 20 mM HEPES, pH 7.5, 10 mM MgCl2, 2 mM MnCl2, 1 mM EGTA, 0.02% Brij 35, 0.02 mg/mL BSA, 0.1 mM Na3VO4, and 2 mM DTT. The reaction mixture was incubated with compound at room temperature for 30 minutes. To initiate the reaction, an equal volume of 20 μM ATP and 0.4 mg/mL peptide substrate were added and then incubated at room temperature for 2 hours. The final assay conditions were: 200 nM RON, 10 μM ATP, 0.2 mg/mL substrate 20 mM HEPES, pH 7.5, 10 mM MgCl2, 1 mM EGTA, 0.02% Brij 35, 0.02 mg/mL BSA, 0.1 mM Na3VO4, 2 mM DTT, and 1% DMSO. IC50 values were calculated from a series of % Activity values determined at a range of inhibitor concentrations using software routines as implemented in the GraphPad Prism software package.
# GST tagged recombinant human RON, amino acids 983-1400. Expressed in insect cells.
# [3] = target: T3, c-MET kinase (Homo sapiens, UniProt P08581); settings: values published in the '188 application (pp. 96-97); cited from earlier work
# T3 construct: His6 with TEV-site leader (N); purchased Invitrogen PV3143
# T3 sequence (P08581 with tags, fused parts or gaps): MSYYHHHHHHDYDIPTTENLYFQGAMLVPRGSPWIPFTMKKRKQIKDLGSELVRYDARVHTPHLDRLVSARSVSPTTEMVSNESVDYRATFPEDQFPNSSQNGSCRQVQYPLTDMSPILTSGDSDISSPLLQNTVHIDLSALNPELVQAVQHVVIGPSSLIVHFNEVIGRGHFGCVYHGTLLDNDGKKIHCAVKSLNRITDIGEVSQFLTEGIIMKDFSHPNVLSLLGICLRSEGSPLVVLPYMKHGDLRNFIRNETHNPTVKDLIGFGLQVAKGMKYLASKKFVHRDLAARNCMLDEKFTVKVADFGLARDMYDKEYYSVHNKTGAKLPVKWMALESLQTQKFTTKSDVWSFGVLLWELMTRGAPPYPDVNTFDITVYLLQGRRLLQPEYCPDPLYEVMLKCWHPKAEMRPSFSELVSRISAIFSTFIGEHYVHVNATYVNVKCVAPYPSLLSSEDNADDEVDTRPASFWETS
# [4] = target: T2, RON kinase; settings: values published in the '188/'556 applications; cited from earlier work
# [5] = target: VEGFR-2 (KDR kinase) (Homo sapiens, UniProt P35968, DEL940-989/E990V); settings: values published in the '188/'556 applications; cited from earlier work
# VEGFR-2 (KDR kinase), sequence (P35968 with tags, fused parts or gaps DEL940-989/E990V): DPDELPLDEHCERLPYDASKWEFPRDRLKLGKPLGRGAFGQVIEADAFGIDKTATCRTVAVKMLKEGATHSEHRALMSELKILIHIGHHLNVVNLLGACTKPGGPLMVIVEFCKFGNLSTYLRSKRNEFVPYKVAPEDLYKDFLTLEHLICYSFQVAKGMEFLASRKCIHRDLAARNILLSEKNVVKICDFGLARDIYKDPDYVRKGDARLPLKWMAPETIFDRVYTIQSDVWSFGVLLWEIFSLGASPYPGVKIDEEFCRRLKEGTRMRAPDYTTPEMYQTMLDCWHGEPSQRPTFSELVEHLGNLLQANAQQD
IC50 [1] [nM],Fold Selectivity RET/MET [1],IC50 [2] [nM],Fold Selectivity RON/MET [2],SMILES,IC50 [3] [nM],IC50 [4] [nM],IC50 [5] [nM]
> 3300,>825,≥ 5000,">1,250","CC(=O)Nc1cc(Oc2cc(F)c(NC(=O)C3(C(=O)Nc4ccc(F)cc4)CC3)cc2F)ccn1 [Compound D, N-(4-(2-acetamidopyridin-4-yloxy)-2,5-difluorophenyl)-N′-(4-fluorophenyl)cyclopropane-1,1-dicarboxamide]",,,
43,1.65,100,3.85,"CC(=O)Nc1cc(Oc2ccc(NC(=O)C3(C(=O)Nc4ccc(F)cc4)CC3)c(F)c2)ccn1 [Compound E, N-(4-(2-acetamidopyridin-4-yloxy)-2-fluorophenyl)-N′-(4-fluorophenyl)cyclopropane-1,1-dicarboxamide]",,,
,0.81,,0.04,CN1CCN(C2CCN(C(=O)Nc3cc(Oc4cc(F)c(NC(=O)C5(C(=O)Nc6ccc(F)cc6)CC5)cc4F)ccn3)CC2)CC1 [Compound G],53,2,100
,7,,0.75,O=C(Nc1cc(Oc2cc(F)c(NC(=O)C3(C(=O)Nc4ccc(F)cc4)CC3)cc2F)ccn1)N1CC(CO)C1 [Compound H],4,3,10
